Data on 15 molecules can be found in ChEMBL document CHEMBL2429866, “New aminoadamantane derivatives with antiproliferative activity” (Med Chem Res, 2013).

The test system of series [1] is NCI-H460. Kind of series: Cytotoxicity against human NCI-H460 cells after 48 hrs by SRB assay. As to conditions: NCI-H460, 48 h. In kind it is functional.
Series [2] relates to SF-268. Kind of series: Cytotoxicity against human SF268 cells after 48 hrs by SRB assay. As to conditions: SF-268, 48 h. The series is classed as functional. For orientation: Sulforhodamine B stains cellular protein and so reports cell mass.
The test system of series [3] is MCF7. Kind of series: Cytotoxicity against human MCF7 cells after 48 hrs by SRB assay. In kind it is functional. To be noted: MCF7, 48 h.
For series [4], the system named is HCT-116. As to the kind of experiment: Cytotoxicity against human HCT116 cells after 48 hrs by SRB assay. The series is classed as functional. To be noted: HCT-116, 48 h.
Series [5] is described as follows: (§1) Cytotoxicity against human NHDF cells after 48 hrs by SRB assay. In kind it is cell-based. As to conditions: NHDF cells.
Series [6] concerns NHDF. The series is described as §1. The series is classed as cell-based. As to conditions: nhdf, 48 h.
In series [7] the test system is SK-MEL-28. Kind of series: Cytotoxicity against human SK-MEL-28 cells after 48 hrs by SRB assay. In kind it is functional. As to conditions: SK-MEL-28, 48 h.
Series [8] deals with DMS-114. As to the kind of experiment: Cytotoxicity against human DMS114 cells after 48 hrs by SRB assay. The series is classed as functional. As to conditions: DMS-114, 48 h.
Series [9] relates to U-251. As to the kind of experiment: Cytotoxicity against human U251 cells after 48 hrs by SRB assay. In kind it is functional. To be noted: U-251, 48 h.
Series [10] is described as follows: Cytotoxicity against human NCI-ADR-RES cells after 48 hrs by SRB assay. In kind it is functional.
Series [11] deals with HCT-15. Kind of series: Cytotoxicity against human HCT15 cells after 48 hrs by SRB assay. The series is classed as functional. As to conditions: HCT-15, 48 h.
In series [12] the test system is LNCaP. Kind of series: Cytotoxicity against human LNCAP cells after 48 hrs by SRB assay. In kind it is functional.
Series [13] has as its system DU-145. Kind of series: Cytotoxicity against human DU145 cells after 48 hrs by SRB assay. In kind it is functional. As to conditions: DU-145, 48 h.
In series [14] the test system is COLO 205. Kind of series: Cytotoxicity against human COLO205 cells after 48 hrs by SRB assay. In kind it is functional. To be noted: COLO 205, 48 h.
The subject of series [15] is PC-3. Kind of series: Cytotoxicity against human PC3 cells after 48 hrs by SRB assay. In kind it is functional. To be noted: PC-3, 48 h.
The nature of series [16]: Cytotoxicity against human MSC cells after 48 hrs by SRB assay. In kind it is cell-based. As to conditions: for GI50 at 48 h: MSC cells; for TGI: msc, 48 h.
Series [17] concerns A549. Kind of series: Cytotoxicity against human A549 cells after 48 hrs by SRB assay. In kind it is functional. As to conditions: A549, 48 h.
Series [18] is described as follows: Cytotoxicity against human EKVX cells after 48 hrs by SRB assay. In kind it is functional.
In series [19] the test system is OVCAR-5. As to the kind of experiment: Cytotoxicity against human OVCAR5 cells after 48 hrs by SRB assay. The series is classed as functional. As to conditions: OVCAR-5, 48 h.
In series [20] the test system is IGROV-1. As to the kind of experiment: Cytotoxicity against human IGROV1 cells after 48 hrs by SRB assay. The series is classed as functional. As to conditions: IGROV-1, 48 h.
In series [21] the test system is MDA-MB-231. Kind of series: Cytotoxicity against human MDA-MB-231 cells after 48 hrs by SRB assay. To be noted: MDA-MB-231, 48 h. In kind it is functional.
Series [22] can be described thus: Cytotoxicity against human CAKI cells after 48 hrs by SRB assay. In kind it is functional.

On to `c1ccc(CC23CC4CC(CC(C4)C2NCCCn2ccnc2)C3)cc1` (stereo not drawn), for which the concentration for 50% growth inhibition (GI50) in series [1] amounted to 31.5 µM; in [2] it was 28.8 µM; in series [3] it was 27 µM; in series [4], 26.8 µM. In addition, the total growth inhibition concentration (TGI) in [1] was 67.5 µM; in series [2], 62.8 µM; in [3] it was 56.1 µM; in [4] it was 64.7 µM.

`Cl.NC1C2CC3CC(C2)CC1(Cc1ccc(F)cc1)C3` (stereo not drawn): in [5], halving of growth (GI50 at 48 h) required 17.9 µM. The concentration for total growth inhibition (TGI) in series [6] turned out to be 52.8 µM; in series [7], 45 µM; in series [8], 50.4 µM; in series [1], 52 µM; in [9] it was 50.9 µM; in [2] it was 37.4 µM. Besides, the TGI is 24.4 µM in [10], 8.7 µM in series [3], 53.8 µM in series [11] and 17.5 µM in [4]. In addition, the GI50 in [7] worked out at 13.2 µM; in series [8], 9.38 µM; in series [1], 13.7 µM; in series [9] it was 21.8 µM; in series [2], 7.83 µM; in series [10], 7.4 µM. In addition, the results for the GI50 in [3], in [11] and in [4] were 4.6 µM, 19.4 µM and 5.6 µM, respectively.

Take `c1ccc(CC23CC4CC(CC(C4)C2NCCN2CCCCC2)C3)cc1` (stereo not drawn): the GI50 in series [1] stood at 6.32 µM; in series [2], 13.1 µM; in [3], 6.75 µM; in series [4], 9.94 µM. Further, the concentration for total growth inhibition (TGI) is 32.2 µM in series [1], 45.9 µM in [2], 33.2 µM in series [3] and 51.7 µM in series [4].

In the case of `c1ccc(CC23CC4CC(CC(C4)C2NCCCN2CCOCC2)C3)cc1` (stereo not drawn), the GI50 in series [1] was determined as 50.7 µM; in [2] it was 56.4 µM; in series [3] it was 28.9 µM; in series [4] it was 44 µM. For the same molecule, the total growth inhibition concentration (TGI) was determined as 100 µM in series [1], 100 µM in series [2], 58.5 µM in series [3] and 100 µM in [4].

Take `CN(C)CCCNC1C2CC3CC(C2)CC1(Cc1ccccc1)C3` (stereo not drawn): the 50% growth inhibitory concentration (GI50) in [1] was found to be 5.78 µM; in series [2] it was 9.09 µM; in [3] it was 9.11 µM; in series [4], 6.76 µM. The TGI in [1] is 25.8 µM; in series [2], 40.9 µM; in [3] it was 42.9 µM; in series [4], 34.8 µM.

Turning to `COc1cc([C@@H]2c3cc4c(cc3[C@@H](O[C@@H]3O[C@@H]5CO[C@@H](C)O[C@H]5[C@H](O)[C@H]3O)[C@H]3COC(=O)[C@H]23)OCO4)cc(OC)c1O` [ETOPOSIDE], in [2], the GI50 was 4.21 µM and total growth inhibition (TGI) required 92.7 µM.

For the molecule `N[C@H]1c2ccccc2C23CC4CC(CC(C4)[C@H]12)C3` (relative stereo), the 50% growth inhibitory concentration (GI50) is 31.2 µM in series [9]; 32.6 µM in series [3]; 28.5 µM in series [12]; 26.6 µM in series [13]; 35 µM in series [14]. In addition, the TGI in [9] is 56.2 µM; in series [3] it was 62.5 µM; in series [12], 61.2 µM; in series [13], 37.6 µM; in series [14], 69.9 µM.

Take `N[C@@H]1c2ccccc2C23CC4CC(CC(C4)[C@H]12)C3` (relative stereo): the GI50 in series [9] was found to be 33 µM; in series [13] it was 31.4 µM; in series [15] it was 21.3 µM. The values for the total growth inhibition concentration (TGI) in series [9], in [13] and in series [15] were 56.6 µM, 66.1 µM and 56.7 µM, respectively.

Take `Cl.NC1C2CC3CC(C2)CC1(Cc1ccccc1)C3` (stereo not drawn): the GI50 at 48 h in [16] turned out to be 9.55 µM. Further, the TGI in series [16] was found to be 45.56 µM; in series [17], 43.7 µM; in series [18] it was 29.2 µM; in series [2], 56.8 µM; in [10], 30 µM; in [19], 37.8 µM. In addition, the TGI in series [20] turned out to be 36.5 µM; in [21], 46.6 µM; in series [3], 9.5 µM; in series [13], 29.8 µM; in [22] it was 26.8 µM; in series [14], 33.2 µM. This molecule came in with a TGI in series [4] of 35.8 µM. The concentration for 50% growth inhibition (GI50) amounted to 8.67 µM in series [17]; 6.94 µM in series [18]; 21 µM in series [2]; 6.7 µM in series [10]; 8.35 µM in series [19]; 7.6 µM in [20]. Also, the GI50 in series [21] worked out at 6.68 µM; in [3], 5.5 µM; in series [13], 6.68 µM; in [22], 6.54 µM; in series [14], 7.12 µM; in series [4] it was 6.59 µM.

In the case of `COc1ccc(CC23CC4CC(CC(C4)C2N)C3)cc1.Cl` (stereo not drawn), the 50% growth inhibitory concentration (GI50) at 48 h in series [5] was determined as 27.7 µM; in [16], 24.8 µM. Also, the concentration for total growth inhibition (TGI) in series [6] worked out at 58.8 µM; in series [16], 56.05 µM; in series [7], 60.7 µM; in [8], 73.9 µM; in series [1] it was 62.4 µM; in [9] it was 58 µM. The TGI in series [2] came to 50.7 µM; in series [10] it was 55.3 µM; in series [3], 42.3 µM; in [11], 75 µM; in series [4], 52.2 µM. For the same molecule, the GI50 came to 31.8 µM in series [7]; 40.1 µM in [8]; 31.2 µM in series [1]; 31.2 µM in series [9]; 21.2 µM in [2]; 29.3 µM in [10]. In addition, the concentration for 50% growth inhibition (GI50) was 7.4 µM in series [3], 38.8 µM in series [11] and 18.5 µM in [4].

Turning to `c1ccc(CC23CC4CC(CC(C4)C2NCCN2CCNCC2)C3)cc1` (stereo not drawn), the GI50 turned out to be 7.49 µM in [1], 22.2 µM in series [2], 21.1 µM in series [3] and 7.02 µM in series [4]. For the same molecule, the concentration for total growth inhibition (TGI) in series [1] was found to be 46.8 µM; in series [2], 53.6 µM; in series [3] it was 52.7 µM; in [4], 50 µM.

With `O=c1[nH]cc(F)c(=O)[nH]1` [FLUOROURACIL], the GI50 in [1] was determined as 5.95 µM; in series [2], 49.2 µM; in [3] it was 8.4 µM; in [4] it was 9.51 µM. In addition, the total growth inhibition concentration (TGI) in series [1], in series [2], in series [3] and in series [4] was > 100 µM in each case.

`NC1C2CC3CC(C2)CC1(c1ccccc1)C3` (stereo not drawn): the GI50 stood at 100 µM in series [1]; 100 µM in series [9]; 100 µM in series [2]; 69.3 µM in [3]; 100 µM in [13]; 82.9 µM in series [15]. The GI50 in series [14] came out at 84.5 µM. In addition, the TGI worked out at 100 µM in series [1]; 100 µM in [9]; 100 µM in series [2]; 100 µM in [3]; 100 µM in series [13]; 89.3 µM in [15]. The molecule further yielded a total growth inhibition concentration (TGI) in [14] of 100 µM.

Consider `CN(C)CCNC1C2CC3CC(C2)CC1(Cc1ccccc1)C3` (stereo not drawn), for which the GI50 in [8] amounted to 26.5 µM; in series [2], 29.3 µM; in series [3], 25.9 µM; in series [12], 24.4 µM; in series [14] it was 25.4 µM; in series [4], 24 µM. Moreover, the concentration for total growth inhibition (TGI) in series [8] was determined as 58.1 µM; in [2] it was 57.1 µM; in [3] it was 54.1 µM; in series [12] it was 54.7 µM; in series [14], 59.9 µM; in [4], 55.9 µM.

Consider `c1ccc2c(c1)CNC1C3CC4CC(C3)CC21C4` (stereo not drawn), for which the concentration for 50% growth inhibition (GI50) in series [1] came out at 100 µM; in series [2] it was 100 µM; in series [3], 52 µM; in series [4] it was 63.9 µM. Also, the concentration for total growth inhibition (TGI) in series [1], in series [2], in series [3] and in series [4] was 100 µM in each case.

By GI50 is commonly meant the concentration giving 50% growth inhibition. One may read the TGI as the concentration giving total growth inhibition. A high value points to less potent growth arrest.
